The structures appear in SMILES notation.

From ChEMBL document CHEMBL5356997, “Maydistacins A-G, Terpestacin-type Sesterterpenoids with Anti-inflammatory Activity from the Phytopathogenic Fungus Bipolaris maydis” (J Nat Prod, 2024) come the findings set out here.

The test system of data set [1] is RAW264.7. Kind of data set: Antiinflammatory activity against LPS-stimulated mouse RAW264.7 cells assessed as inhibition of NO production preincubated with compound for 2 hrs followed by LPS stimulation and measured after 12 hrs by Griess reagent based microplate reader analysis. The class given is functional, cell-based.
Data set [2] can be described thus: Cytotoxicity against mouse RAW264.7 cells assessed as cell survival at 50 uM by MTT assay relative to control. As to conditions: read-out: Activity. The class given is toxicity, cell-based. For orientation: Tetrazolium dyes change colour on reduction, which living cells bring about.
For data set [3], the system named is RAW264.7. Kind of data set: Antiinflammatory activity against LPS-stimulated mouse RAW264.7 cells assessed as inhibition of NO production at 50 uM preincubated with compound for 2 hrs followed by LPS stimulation and measured after 12 hrs by Griess reagent based microplate reader analysis relative to control. The class given is functional. Particulars: time 14 hrs. In general terms: Griess reagent forms a coloured azo dye with nitrite.

On to `C/C1=C\C[C@]2(C)C(=O)C(O)=C([C@H](C)CO)[C@H]2C/C=C(\C)C(=O)CC/C(C)=C/CC1`, for which the half-inhibitory concentration (IC50) with RAW264.7 [1] was determined as 19 µM. Besides, in data set [2], the viability at 50 µM is greater than 90%.

Turning to `C/C1=C\C[C@]2(C)C(=O)C(O)=C([C@H](C)CO)[C@H]2C[C@H]2O[C@]2(C)[C@@H](O)CC/C(C)=C/CC1`, in data set [2], the viability at 50 µM is greater than 90%. Also, the inhibition at 50 µM with RAW264.7 [3] was less than 40%.

On to `CC(=O)O[C@H]1CC/C(C)=C/CC/C(C)=C/C[C@]2(C)C(=O)C(O)=C([C@H](C)CO)[C@H]2C/C=C/1C`, for which the viability at 50 µM in data set [2] was greater than 90%. The inhibition at 50 µM in the data set on RAW264.7 [3] was less than 40%.

In the case of `C/C1=C\C[C@]2(C)C(=O)C(O)=C([C@H](C)CO)[C@H]2C/C=C(\C)[C@@H]2CC[C@](C)(/C=C/C1)O2`, the viability at 50 µM in data set [2] is greater than 90%. Moreover, the inhibition at 50 µM in the data set with RAW264.7 [3] is less than 40%.

For `CC(=O)OC[C@@H](C)C1=C(O)C(=O)[C@@]2(C)C/C=C(\C)C/C=C/[C@](C)(O)CC[C@@H](O)/C(C)=C/C[C@H]12`, the viability at 50 µM in data set [2] was greater than 90%. In the data set on RAW264.7 [3], the inhibition at 50 µM was less than 40%.

For `CC(=O)OC[C@@H](C)C1=C(O)C(=O)[C@@]2(C)C/C=C(\C)CC/C=C(\C)CC[C@H](O)[C@@]3(C)O[C@@H]3C[C@H]12`, the viability at 50 µM in data set [2] was greater than 90%. In addition, in the data set on RAW264.7 [3], the inhibition at 50 µM is less than 40%.

For `CC(=O)OC[C@@H](C)C1=C(O)C(=O)[C@@]2(C)C/C=C(\C)CC[C@@H]3O[C@@]3(C)CC[C@H](O)/C(C)=C/C[C@H]12`, in data set [2], the viability at 50 µM is greater than 90%. Further, the inhibition at 50 µM in the data set with RAW264.7 [3] is less than 40%.

On to `C[C@@H]1C[C@H]2[C@@H]3CCC4=CC(=O)C=C[C@]4(C)[C@@]3(F)[C@@H](O)C[C@]2(C)[C@@]1(O)C(=O)CO` [DEXAMETHASONE], for which the IC50 in the data set with RAW264.7 [1] turned out to be 6.7 µM.

Turning to `CC(=O)OC[C@@H](C)C1=C(O)C(=O)[C@@]2(C)C/C=C(\C)CC/C=C(\C)CC[C@H](O)/C(C)=C/C[C@H]12` [FUSAPROLIFERIN], the viability at 50 µM in data set [2] was greater than 90%. Besides, the inhibition at 50 µM in the data set with RAW264.7 [3] is less than 40%.

Take `C/C1=C\C[C@]2(C)C(=O)C(O)=C([C@H](C)CO)[C@H]2C/C=C(\C)[C@@H](O)CC/C(C)=C/CC1` [TERPESTACIN]: the viability at 50 µM in data set [2] is greater than 90%. Moreover, the inhibition at 50 µM with RAW264.7 [3] is less than 40%.

The term IC50 denotes the midpoint of a concentration-inhibition curve. Usually inhibition stands for the relative decrease from the control value, in per cent.
